Reference: patent US20110256121A1, “METHODS AND KITS FOR DIAGNOSING OR MONITORING AUTOIMMUNE AND CHRONIC INFLAMMATORY DISEASES” (THE REGENTS OF THE UNIVERSITY OF MICHIGAN, priority 2008, published 2011)

Tests used:
Type in all cases: cell-based, human
[1] = test system: CD70-dependent B cell help; assay: T cell and B cell costimulation assay with PWM, IgG ELISA; details: 8 days, P<0.05
Method: T cell and B cell costimulation assays. E-rosette-purified T cells were stimulated for 16 hours with PHA and then treated with the indicated chemicals for an additional 72 hours as described above. Where indicated, T cell subsets were isolated by negative selection using magnetic beads (Miltenyi). B cells (1-4×10^5) enriched by negative selection using magnetic beads (Miltenyi) and assessed to be 70-85% pure using PE-conjugated anti-human CD21 (PharMingen), were added to washed, drug-treated autologous T cells, at T cell to B cell ratios of 4:1, 2:1, 1:1, 1:2, and 1:4. Where indicated, 0.625 μg/ml of PWM (Aldrich) was added. The cells were cultured in RPMI 1640/10% FBS/penicillin/streptomycin for 8 days in 96-well roundbottomed plates (Costar) containing a 200 μl total volume (performed in duplicate). Cells were supplemented with 50 μl of medium on day 4. […]
(§1) IgG enzyme-linked immunosorbent assays (ELISAs). […] Serial dilutions of purified human IgG (Sigma) were used for quantitation. […] The plates were read at 405 nm using a SpectraMax spectrophotometer (Molecular Devices). […]
Since CD70 participates in T cell-dependent B cell stimulation (See e.g., Kobata et al., Proc Natl Acad Sci USA 92, 11249 (1995)), the effects of DNA methylation inhibitors on CD70-dependent B cell help were examined. […] Eight days later, total IgG in the supernatants was measured by ELISA. […]

[2] = test system: KIR2DL4; assay: KIR2DL4 transcripts by real-time quantitative RT-PCR; details: relative to β-actin, p<0.001 for both
Method: T cell purification and culture. Peripheral blood mononuclear cells (PBMC) were isolated from healthy donors by density gradient centrifugation, stimulated for 18 hours with 1 μg/mlphytohemagglutinin (PHA) (Murex, Norcross, Ga.), then treated or not with 5 μm 5-azacytidine (5-azaC, Sigma, St. Louis, Mo.) for 72 hours as described (6). Total T cells, CD4^+ T cells or CD8′ T cells then were purified using the pan T cell isolation kit II or the CD4^+ and CD8^+ T cell isolation kit II from Miltenyi (Auburn, Calif.). T cells were typically >94% CD3^+ by flow cytometry. Jurkat cells (E6-1) were maintained in culture as described (11). This protocol was approved by the University of Michigan Institutional Review Board.
Real-time quantitative RT-PCR. Total RNA was isolated using the RNeasy Mini Kit (QIAGEN, Valencia, Calif.). Primers were designed to match polymorphic positions unique to KIR2DL2 or KIR2DL4 genes as described by Uhrberg et al. (13). Controls included β-actin primers as described (14). Real-time quantitative RT-PCR was performed with a Rotor-Gene 3000 (Corbett Robotics, San Francisco, Calif.) and QuantiTect SYBR Green RT-PCR kit (QIAGEN) according to manufacturer's instructions. cDNA synthesized from T cells was used to generate standard curves for β-actin, KIR2DL2 and KIR2DL4, and each experiment was repeated at least twice.

[3] = test system: KIR2DL2 and KIR2DL4 promoters; assay: Chromatin immunoprecipitation (ChIP) assays; details: 5-azaC treated vs untreated, n=3, p<0.03
Method: Chromatin immunoprecipitation (ChIP) assays. Transcription factor binding to KIR2DL2 and KIR2DL4 promoter sequences was determined using mAb to Sp1 (Upstate Biotechnology), Ets1 and AML1 (Abcam) and the ChIP-IT kit with protocols provided by the manufacturer (Active Motif, Carlsbad, Calif.). Briefly, 4.5×10^7 untreated and 5-azaC treated T cells were crosslinked, sonicated, chromatin immunoprecipitated with the relevant mAb, and precipitated DNA amplified by real-time PCR using a Rotor-Gene 3000. Standard curves were determined for each primer set by dilution of the total input 5-azaC treated DNA in a 0.1-100 ng range. The amount of each sequence in the input and precipitated DNA was calculated from the cycle threshold (CT) for each primer set using the standard curves. The primers used were: […]
ChIP assays were then used to compare transcription factor binding to the KIR2DL2 and KIR2DL4 promoters in untreated and 5-azaC treated cells. […] The reason for this is uncertain, but may reflect the structural differences in the KIR2DL2 and KIR2DL4 promoters.

[4] = test system: CD70-dependent B cell help; assay: TT48E T cell clone and autologous B cell costimulation without PWM, IgG ELISA; details: P<0.05
Method: T cell and B cell costimulation assays. E-rosette-purified T cells were stimulated for 16 hours with PHA and then treated with the indicated chemicals for an additional 72 hours as described above. Where indicated, T cell subsets were isolated by negative selection using magnetic beads (Miltenyi). B cells (1-4×10^5) enriched by negative selection using magnetic beads (Miltenyi) and assessed to be 70-85% pure using PE-conjugated anti-human CD21 (PharMingen), were added to washed, drug-treated autologous T cells, at T cell to B cell ratios of 4:1, 2:1, 1:1, 1:2, and 1:4. Where indicated, 0.625 μg/ml of PWM (Aldrich) was added. The cells were cultured in RPMI 1640/10% FBS/penicillin/streptomycin for 8 days in 96-well roundbottomed plates (Costar) containing a 200 μl total volume (performed in duplicate). Cells were supplemented with 50 μl of medium on day 4. Where indicated, 1 μg/ml of anti-CD70 monoclonal antibody (HNE51) (Dako) was added to the cultures. TT48E cells were similarly stimulated with PHA (1 μg/ml) for 18 hours, treated with the indicated drugs for 3 days, then similarly cultured with autologous B cells for 8 days. […]
as §1

Structure (SMILES)	IgG secreted by B cells cultured with drug-treated T cells vs untreated T cells [1]	KIR2DL4 mRNA in CD4+ and CD8+ T cells [2]	binding of Sp1, Ets1 and AML1 to both promoters [3]	IgG produced by B cells cultured with drug-treated TT48E vs untreated T cells [4]
Nc1ncn([C@@H]2O[C@H](CO)[C@@H](O)[C@H]2O)c(=O)n1 [5-azaC, 5-azacytidine]	secreted greater amounts of IgG	increase is significant on both subsets	increases binding of all 3 transcription factors	produce greater amounts of IgG
N#CC(=C(/N)Sc1ccccc1N)/C(C#N)=C(\N)Sc1ccccc1N [U0126]	secreted greater amounts of IgG			produce greater amounts of IgG
